“Also recorded” adds a separate entry of the source.
Test system: pentylenetetrazol (PTZ)-induced ictal brain activity
Assay: Modulation of pentylenetetrazol (PTZ)-induced seizures, BOLD fMRI in rats
Assay type: in vivo
Conditions: 3 mg/kg, positive control; anesthetized male Wistar rats
Method: Functional MRI (fMRI) was performed using a high-field preclinical MRI system in anesthetized male Wistar rats in order to determine the modulation of pentylenetetrazol (PTZ)-induced ictal brain activity by chronic treatment with test compound (TC). Animals treated with vehicle and 3 mg/kg Alprazolam served as controls. A schematic of the study design can be seen in FIG. 6. […] Various physiological parameters were also measured throughout the experiment including body weight, CO2 levels, blood pH, and heart rate.

With `Cc1nnc2n1-c1ccc(Cl)cc1C(c1ccccc1)=NC2` [Alprazolam] the “PTZ-induced ictal brain activity (BOLD fMRI area under the curve) vs vehicle” value was “effectively cancelled PTZ-induced brain activity; also recorded: Vehicle vs. Alprazolam in all”.

— patent US20250195551A1 (L4 BIO LLC, priority 2023, published 2025)
